In ChEMBL document CHEMBL1909046, “DrugMatrix in vitro pharmacology data”:

Assays:
[1] = biological target: Mitogen-activated protein kinase 3 (Homo sapiens, UniProt P27361); experiment: DRUGMATRIX: Protein Serine/Threonine Kinase, ERK1 enzyme inhibition (substrate: Myelin Basic Protein); design: species or system Escherichia coli; settings: Not Active = under 50% inhibition at 10 µM
[2] = biological target: T1, 5-hydroxytryptamine receptor 1A (Rattus norvegicus, UniProt P19327); format: cell membranes, CHO-K1, Membrane; further: in other assays of this panel Not Active means under 50% inhibition at 10 µM
T1 sequence (P19327 whole entry): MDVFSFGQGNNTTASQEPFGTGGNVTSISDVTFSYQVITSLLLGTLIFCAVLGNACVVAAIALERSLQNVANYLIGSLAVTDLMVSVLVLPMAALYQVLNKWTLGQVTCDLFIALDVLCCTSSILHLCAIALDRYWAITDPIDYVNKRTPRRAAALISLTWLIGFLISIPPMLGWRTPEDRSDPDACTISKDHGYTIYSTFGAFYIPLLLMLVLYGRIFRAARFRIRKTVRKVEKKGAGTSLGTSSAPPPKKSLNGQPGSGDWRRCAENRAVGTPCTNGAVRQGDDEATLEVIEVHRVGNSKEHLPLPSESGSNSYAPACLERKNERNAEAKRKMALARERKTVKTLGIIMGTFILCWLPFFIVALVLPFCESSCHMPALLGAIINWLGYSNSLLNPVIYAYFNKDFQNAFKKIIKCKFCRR

[3] = biological target: Mitogen-activated protein kinase 1 (Homo sapiens, UniProt P28482); experiment: DRUGMATRIX: Protein Serine/Threonine Kinase, ERK2 enzyme inhibition (substrate: Myelin Basic Protein); design: species or system Escherichia coli; settings: Not Active = under 50% inhibition at 10 µM
[4] = biological target: Epidermal growth factor receptor (Homo sapiens, UniProt P00533); experiment: DRUGMATRIX: Protein Tyrosine Kinase, EGF Receptor enzyme inhibition (substrate: Poly(Glu:Tyr)); format: cell-based, Insect cells; settings: Not Active = under 50% inhibition at 10 µM
[5] = DRUGMATRIX: Interleukin IL-1 radioligand binding (ligand: [125I] interleukin 1beta); format: cell membranes, Membrane; settings: nih3t3; Not Active = under 50% inhibition at 10 µM
Caspase-1 = biological target: T2, Caspase-1 (Homo sapiens, UniProt P29466); design: species or system Escherichia coli;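 further: Caspase-1 enzyme inhibition assay with a peptide substrate; in other assays of this panel Not Active means under 50% inhibition at 10 µM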
T2 sequence (P29466 whole entry): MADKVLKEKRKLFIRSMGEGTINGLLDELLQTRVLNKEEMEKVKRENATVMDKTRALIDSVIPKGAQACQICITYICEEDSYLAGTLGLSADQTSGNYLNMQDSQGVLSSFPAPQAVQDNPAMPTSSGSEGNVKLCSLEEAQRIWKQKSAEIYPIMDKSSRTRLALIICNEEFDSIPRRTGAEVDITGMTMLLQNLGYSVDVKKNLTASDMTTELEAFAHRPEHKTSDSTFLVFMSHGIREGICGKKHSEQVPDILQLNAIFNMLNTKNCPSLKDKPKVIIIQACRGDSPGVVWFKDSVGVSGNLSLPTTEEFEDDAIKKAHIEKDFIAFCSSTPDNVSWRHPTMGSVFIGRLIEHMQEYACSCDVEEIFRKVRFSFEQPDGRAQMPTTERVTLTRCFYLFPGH

Leukotriene C4 synthase = biological target: T3, Leukotriene C4 synthase (Cavia porcellus, UniProt A6XA80); format: tissue-based, Lung;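 further: enzyme inhibition assay of leukotriene C4 synthase, using LTA4 as the substrate; in other assays of this panel Not Active means under 50% inhibition at 10 µM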
T3 sequence (A6XA80 whole entry): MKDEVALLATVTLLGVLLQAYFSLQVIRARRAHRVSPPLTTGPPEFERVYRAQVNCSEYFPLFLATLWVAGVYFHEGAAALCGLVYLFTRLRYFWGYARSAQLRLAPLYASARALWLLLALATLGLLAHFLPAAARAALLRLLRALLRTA

Mitogen-activated protein kinase 1, sequence (P28482 whole entry): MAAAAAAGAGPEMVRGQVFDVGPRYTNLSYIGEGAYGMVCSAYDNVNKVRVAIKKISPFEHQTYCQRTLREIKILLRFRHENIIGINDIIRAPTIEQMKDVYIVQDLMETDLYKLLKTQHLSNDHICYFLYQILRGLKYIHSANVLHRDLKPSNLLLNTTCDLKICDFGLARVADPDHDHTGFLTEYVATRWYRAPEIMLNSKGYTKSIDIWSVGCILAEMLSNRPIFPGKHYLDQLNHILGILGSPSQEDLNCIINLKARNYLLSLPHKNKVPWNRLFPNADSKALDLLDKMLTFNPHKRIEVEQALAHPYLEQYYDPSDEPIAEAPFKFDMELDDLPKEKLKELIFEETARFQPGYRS
Mitogen-activated protein kinase 3, sequence (P27361 whole entry): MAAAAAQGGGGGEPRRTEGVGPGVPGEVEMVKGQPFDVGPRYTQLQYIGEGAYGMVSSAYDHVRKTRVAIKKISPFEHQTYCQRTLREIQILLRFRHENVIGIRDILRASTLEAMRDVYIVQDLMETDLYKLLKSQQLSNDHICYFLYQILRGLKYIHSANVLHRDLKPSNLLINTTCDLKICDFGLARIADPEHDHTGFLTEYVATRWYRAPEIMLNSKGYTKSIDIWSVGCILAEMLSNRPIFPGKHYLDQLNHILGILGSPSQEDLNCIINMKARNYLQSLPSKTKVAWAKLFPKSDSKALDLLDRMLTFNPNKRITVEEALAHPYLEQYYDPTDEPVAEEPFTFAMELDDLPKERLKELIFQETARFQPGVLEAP

| Compound | IC50 [1] | IC50 ([2]; cho-k1) | IC50 [3] | IC50 ([4]; insect cells) | IC50 [5] | Ki [5] | IC50 (Caspase-1) | IC50 (Leukotriene C4 synthase) | IC50 ([4]; read-out: IC50) | IC50 ([2]; read-out: IC50) | Ki ([2]; read-out: Ki) | Ki [1] | Ki ([2]; cho-k1) | Ki [3] | IC50 ([4]; insect cells, read-out: IC50) | Ki (Caspase-1) | Ki (Leukotriene C4 synthase) | Ki ([4]; insect cells) |
| --- | --- | --- | --- | --- | --- | --- | --- | --- | --- | --- | --- | --- | --- | --- | --- | --- | --- | --- |
| CC(C)C(=O)Nc1ccc([N+](=O)[O-])c(C(F)(F)F)c1 [FLUTAMIDE] | Not Active | Not Active | Not Active | Not Active | Not Active | Not Active | Not Active | Not Active | – | – | – | – | – | – | – | – | – | – |
| N=C(N)NCCN1CCCCCCC1 [GUANETHIDINE] | Not Active | Not Active | Not Active | Not Active | Not Active | Not Active | Not Active | Not Active | – | – | – | – | – | – | – | – | – | – |
| CC1(C)O[C@@H]2C[C@H]3[C@@H]4CCC5=CC(=O)CC[C@]5(C)[C@@]4(F)[C@@H](O)C[C@]3(C)[C@]2(C(=O)CCl)O1 [HALCINONIDE] | Not Active | Not Active | Not Active | Not Active | Not Active | Not Active | Not Active | Not Active | – | – | – | – | – | – | – | – | – | – |
| O=c1[nH]c(=O)n([C@H]2C[C@H](O)[C@@H](CO)O2)cc1I [IDOXURIDINE] | Not Active | Not Active | Not Active | Not Active | Not Active | Not Active | Not Active | Not Active | – | – | – | – | – | – | – | – | – | – |
| CC1Cc2ccccc2N1NC(=O)c1ccc(Cl)c(S(N)(=O)=O)c1 (stereo not drawn) [INDAPAMIDE] | Not Active | Not Active | Not Active | Not Active | Not Active | Not Active | Not Active | Not Active | – | – | – | – | – | – | – | – | – | – |
| Nc1nc(N)nc(-c2cc(Cl)ccc2Cl)n1.O=C(O)/C=C\C(=O)O [IRSOGLADINE MALEATE] | Not Active | Not Active | Not Active | Not Active | Not Active | Not Active | Not Active | Not Active | – | – | – | – | – | – | – | – | – | – |
| CCC(C)n1ncn(-c2ccc(N3CCN(c4ccc(OCC5COC(Cn6cncn6)(c6ccc(Cl)cc6Cl)O5)cc4)CC3)cc2)c1=O (stereo not drawn) [ITRACONAZOLE] | Not Active | Not Active | Not Active | Not Active | Not Active | Not Active | Not Active | Not Active | – | – | – | – | – | – | – | – | – | – |
| CCCCN1CCCC[C@H]1C(=O)Nc1c(C)cccc1C [LEVOBUPIVACAINE] | Not Active | Not Active | Not Active | Not Active | Not Active | Not Active | Not Active | Not Active | – | – | – | – | – | – | – | – | – | – |
| CCCCc1nc(Cl)c(CO)n1Cc1ccc(-c2ccccc2-c2nnn[nH]2)cc1 [LOSARTAN] | Not Active | Not Active | Not Active | Not Active | Not Active | Not Active | Not Active | Not Active | – | – | – | – | – | – | – | – | – | – |
| Sc1ncnc2nc[nH]c12 [MERCAPTOPURINE ANHYDROUS] | Not Active | Not Active | Not Active | Not Active | Not Active | Not Active | Not Active | Not Active | – | – | – | – | – | – | – | – | – | – |
| C[C@](N)(Cc1ccc(O)c(O)c1)C(=O)O [METHYLDOPA] | Not Active | Not Active | Not Active | – | Not Active | Not Active | Not Active | Not Active | 5.23 µM | – | – | – | – | – | – | – | – | – |
| C[C@]12CCC(=O)C=C1CC[C@@H]1[C@@H]2CC[C@@]2(C)[C@H]1CC[C@]2(C)O [METHYLTESTOSTERONE] | Not Active | Not Active | Not Active | Not Active | Not Active | Not Active | Not Active | Not Active | – | – | – | – | – | – | – | – | – | – |
| Cc1ccccc1N1C(=O)c2cc(S(N)(=O)=O)c(Cl)cc2NC1C (stereo not drawn) [METOLAZONE] | Not Active | Not Active | Not Active | Not Active | Not Active | Not Active | Not Active | Not Active | – | – | – | – | – | – | – | – | – | – |
| COCCc1ccc(OCC(O)CNC(C)C)cc1 (stereo not drawn) [METOPROLOL] | Not Active | Not Active | Not Active | Not Active | Not Active | Not Active | Not Active | Not Active | – | – | – | – | – | – | – | – | – | – |
| CCn1cc(C(=O)O)c(=O)c2cc(F)c(N3CCNCC3)cc21 [NORFLOXACIN] | Not Active | Not Active | Not Active | Not Active | Not Active | Not Active | Not Active | Not Active | – | – | – | – | – | – | – | – | – | – |
| NC1=NC(=O)C(c2ccccc2)O1 (stereo not drawn) [PEMOLINE] | Not Active | Not Active | Not Active | Not Active | Not Active | Not Active | Not Active | Not Active | – | – | – | – | – | – | – | – | – | – |
| Nc1nc2c(ncn2CCC(CO)CO)c(=O)[nH]1 [PENCICLOVIR] | Not Active | Not Active | Not Active | Not Active | Not Active | Not Active | Not Active | Not Active | – | – | – | – | – | – | – | – | – | – |
| C=C(C)C1(O)OC(=O)C=C1OC (stereo not drawn) [PENICILLIC ACID] | Not Active | Not Active | Not Active | Not Active | Not Active | Not Active | Not Active | Not Active | – | – | – | – | – | – | – | – | – | – |
| CC1(C)S[C@@H]2[C@H](NC(=O)Cc3ccccc3)C(=O)N2[C@H]1C(=O)O [PENICILLIN G] | Not Active | Not Active | Not Active | Not Active | Not Active | Not Active | Not Active | Not Active | – | – | – | – | – | – | – | – | – | – |
| C1CCC(C(CC2CCCCN2)C2CCCCC2)CC1 (stereo not drawn) [PERHEXILINE] | Not Active | Not Active | Not Active | – | Not Active | Not Active | Not Active | Not Active | 1.49 µM | – | – | – | – | – | – | – | – | – |
| CCOc1ccc(NC(C)=O)cc1 [PHENACETIN] | Not Active | Not Active | Not Active | Not Active | Not Active | Not Active | Not Active | Not Active | – | – | – | – | – | – | – | – | – | – |
| Cc1ccc(N(CC2=NCCN2)c2cccc(O)c2)cc1 [PHENTOLAMINE] | Not Active | Not Active | Not Active | Not Active | Not Active | Not Active | Not Active | Not Active | – | – | – | – | – | – | – | – | – | – |
| CNNCc1ccc(C(=O)NC(C)C)cc1 [PROCARBAZINE] | Not Active | Not Active | Not Active | Not Active | Not Active | Not Active | Not Active | Not Active | – | – | – | – | – | – | – | – | – | – |
| CN(C)CCCN1c2ccccc2Sc2ccccc21 [PROMAZINE] | Not Active | – | Not Active | Not Active | Not Active | Not Active | Not Active | Not Active | – | 5.17 µM | 2.96 µM | – | – | – | – | – | – | – |
| CC(O)CO (stereo not drawn) [PROPYLENE GLYCOL] | Not Active | Not Active | Not Active | Not Active | Not Active | Not Active | Not Active | Not Active | – | – | – | – | – | – | – | – | – | – |
| CADMIUM ACETATE | Not Active | Not Active | Not Active | – | Not Active | Not Active | Not Active | Not Active | – | – | – | Not Active | Not Active | Not Active | 0.244 µM | Not Active | Not Active | – |
| LEAD (II) ACETATE | Not Active | Not Active | Not Active | Not Active | Not Active | Not Active | Not Active | Not Active | – | – | – | Not Active | Not Active | Not Active | – | Not Active | Not Active | Not Active |
